Common to all, as to assay: inhibition of tumour cell growth, NCI panel, 48 h
The test system of assay [1] is A549.
Assay [2] deals with ACHN.
For assay [3], the system named is CCRF-CEM.
Assay [4] concerns HOP-92.
Assay [5] deals with KM12.
For assay [6], the system named is MCF7.
Assay [7] relates to NCI-H23.
Assay [8] deals with NCI-H460.
Assay [9] concerns NCI/ADR-RES.
Assay [10] deals with OVCAR-3.
The test system of assay [11] is OVCAR-5.
Assay [12] has as its system SF-539.
Assay [13] deals with SN12C.
In assay [14] the test system is SNB-19.
The test system of assay [15] is SR.
Assay [16] has as its system SW-620.
For assay [17], the system named is T47D.
Assay [18] deals with HL-60.
The test system of assay [19] is SK-OV-3.

The results in this text go back to ChEMBL document CHEMBL1201862, “PubChem BioAssay data set” (2004).

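How tested: cells in 96-well plates exposed to compound for 48 hours at five concentrations. Here, GI50 denotes the concentration required for 50% inhibition of growth.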 Activity calls are given as the source filed them. Cut-off read from the data, not from the text of the source: active = GI50 up to about 1.1 µM and inactive = higher.

For `Cc1ccc(Cc2n[nH]c(=O)n2N2C(=O)c3ccccc3C2=O)cc1`, the GI50 in assay [1], in [2], in assay [3], in assay [4], in assay [5] and in [6] was > 100 µM (inactive) throughout. Moreover, the GI50 in [7], in assay [8], in assay [9], in assay [10], in [11] and in assay [12] was > 100 µM (inactive) each time. The GI50 in [13], in [14], in assay [15], in [16] and in assay [17] was > 100 µM (inactive) each time.
For `O=C(N/N=C(COc1ccc(Cl)cc1)\N=C\c1ccncc1)c1ccncc1`, the GI50 in assay [1] is > 100 µM (inactive); in assay [2], > 100 µM (inactive); in assay [3], > 100 µM (inactive); in [18], > 100 µM (inactive); in [4] it was 43.3 µM (inactive); in [5], > 100 µM (inactive). The GI50 in [6], in [7], in assay [8], in assay [9], in assay [10] and in [11] was > 100 µM (inactive) in each case. The GI50 was > 100 µM (inactive) in assay [12]; > 100 µM (inactive) in assay [19]; > 100 µM (inactive) in assay [13]; > 100 µM (inactive) in assay [14]; > 100 µM (inactive) in [16]; 96.4 µM (inactive) in [17].
As to `O=P(OCc1ccccc1)(OCc1ccccc1)C(O)/C=C/c1ccccc1` (stereo unspecified), the GI50 in assay [1] was 32.9 µM (inactive); in assay [2], 29.1 µM (inactive); in assay [18] it was 19.8 µM (inactive); in [4] it was 19.4 µM (inactive); in [5] it was 19.8 µM (inactive); in assay [6], 27.6 µM (inactive). In addition, the GI50 is 20.2 µM (inactive) in assay [7]; 26.5 µM (inactive) in [9]; 20.9 µM (inactive) in [10]; 30.6 µM (inactive) in [11]; 45.1 µM (inactive) in assay [19]; 19.8 µM (inactive) in [13]. Besides, the GI50 in assay [14] was 23 µM (inactive); in assay [15], 19.9 µM (inactive); in [16], 26.1 µM (inactive); in assay [17], 33.7 µM (inactive).
As for `CC(C)(Cc1ccccc1)N1C(=O)N1C(C)(C)Cc1ccccc1`, the GI50 is 20.1 µM (inactive) in assay [1]; 20.8 µM (inactive) in assay [3]; 4.78 µM (inactive) in assay [18]; > 100 µM (inactive) in assay [5]; 31.5 µM (inactive) in assay [6]; 24 µM (inactive) in assay [7]. Also, the GI50 in [8] is > 100 µM (inactive); in assay [9] it was > 100 µM (inactive); in assay [10], > 100 µM (inactive); in assay [11], 19.9 µM (inactive); in assay [12] it was 33.3 µM (inactive); in assay [19], 57.4 µM (inactive). The GI50 was 52 µM (inactive) in assay [13]; > 100 µM (inactive) in assay [14]; 20.6 µM (inactive) in assay [15]; 57 µM (inactive) in assay [16]; 65.9 µM (inactive) in assay [17].
Consider `CN(C)CCCNC(=O)N/N=C/c1ccc(O)cc1`, for which the GI50 in [1], in assay [2], in [3], in assay [18], in assay [5] and in assay [6] was > 100 µM (inactive) each time. The GI50 in assay [7], in [8], in assay [9], in [10], in assay [11] and in [12] was > 100 µM (inactive) throughout. Moreover, the GI50 in [19], in [13], in [14], in assay [15], in [16] and in assay [17] was > 100 µM (inactive) in each case.
As to `CO/C(=N\N=C\c1cc(OC)ccc1OC)c1ccncc1`, the GI50 in [1], in [2], in assay [3], in assay [18], in assay [5] and in assay [6] was > 10 µM (inactive) each time. The GI50 in assay [7], in assay [8], in assay [9], in assay [11], in assay [12] and in assay [19] was > 10 µM (inactive) each time. In addition, the GI50 in assay [13], in assay [14], in [15], in assay [16] and in assay [17] was > 10 µM (inactive) throughout.
Take `COC(=O)C1=C(OC(=O)/C(=C/c2ccccc2)c2ccc(OC)cc2)C(C(=O)OC)[C@@]2(O)[C@@H](C(=O)OC)[C@H](C)C[C@@H]1[C@@H]2C(=O)OC` (stereo partly specified): the GI50 in assay [1] is 50.1 µM (inactive); in [2], > 100 µM (inactive); in assay [3] it was > 100 µM (inactive); in assay [18], > 100 µM (inactive); in assay [5], > 100 µM (inactive); in assay [6], > 100 µM (inactive). The GI50 in assay [7] was 50.1 µM (inactive); in [8], > 100 µM (inactive); in assay [9], > 100 µM (inactive); in [10], > 100 µM (inactive); in [11] it was 65.6 µM (inactive); in assay [12], > 100 µM (inactive). For the same compound, the GI50 was 80.4 µM (inactive) in assay [19]; > 100 µM (inactive) in [13]; 32.4 µM (inactive) in [14]; > 100 µM (inactive) in assay [15]; > 100 µM (inactive) in assay [16]; > 100 µM (inactive) in assay [17].
On to `C=CCc1oc(C)nc1CCCC`, for which the GI50 in assay [1], in [2], in [3], in assay [18], in assay [4] and in assay [5] was > 100 µM (inactive) in each case. The GI50 in [6], in [7], in assay [8], in assay [9], in [10] and in assay [11] was > 100 µM (inactive) each time. Moreover, the GI50 is > 100 µM (inactive) in assay [12]; > 100 µM (inactive) in assay [19]; > 100 µM (inactive) in assay [13]; 49.3 µM (inactive) in assay [14]; > 100 µM (inactive) in assay [16]; > 100 µM (inactive) in [17].
Turning to `Cc1c[nH]c(C(=O)O)c1-c1ccc2c(-c3ccccc3)nc3ccccc3n12`, the GI50 in assay [1] is 33.7 µM (inactive); in assay [2] it was 52.4 µM (inactive); in assay [3], 36.3 µM (inactive); in assay [4], 32.9 µM (inactive); in [5], 20 µM (inactive); in [6], 34 µM (inactive). The GI50 in assay [7] was 35.4 µM (inactive); in assay [8], 22.9 µM (inactive); in assay [9] it was 17.2 µM (inactive); in [10], 16.4 µM (inactive); in assay [11], 36 µM (inactive); in assay [12], 19.5 µM (inactive). Further, the GI50 in assay [19] is 32.1 µM (inactive); in [13] it was 30.7 µM (inactive); in assay [15] it was 33 µM (inactive); in assay [16] it was 41.2 µM (inactive); in assay [17] it was 37.2 µM (inactive).
For `O=S(=O)(O)c1ccc(/N=N/c2ccc(/N=N/c3c(O)c(S(=O)(=O)O)cc4cc(S(=O)(=O)O)ccc34)cc2)cc1`, the GI50 in [1], in assay [2], in [3], in [18], in assay [4] and in assay [5] was > 100 µM (inactive) throughout. The GI50 in assay [6], in [7], in assay [8], in assay [9], in assay [10] and in [11] was > 100 µM (inactive) each time. The GI50 in assay [12], in assay [19], in assay [13], in assay [14], in assay [16] and in assay [17] was > 100 µM (inactive) in each case.
Turning to `NS(=O)(=O)c1ccc(CNc2nc(-c3cccs3)nc3ccc(I)cc23)cc1`, the GI50 in [1] is 12.5 µM (inactive); in assay [2], 18.4 µM (inactive); in assay [4], 16 µM (inactive); in assay [5] it was 8.57 µM (inactive); in assay [6], 0.573 µM (active); in assay [7], 17.9 µM (inactive). In addition, the GI50 in assay [8] was 15 µM (inactive); in assay [9], 26.2 µM (inactive); in [10] it was 11.2 µM (inactive); in assay [11] it was 19.2 µM (inactive); in assay [12] it was 11.2 µM (inactive); in [19], 22.6 µM (inactive). The GI50 in [13] was 22.9 µM (inactive); in [14] it was 17.4 µM (inactive); in [15] it was 15 µM (inactive); in [16], 31.5 µM (inactive); in assay [17] it was 0.222 µM (active).
